From patent publication US11873291B2, “Quinoline cGAS antagonist compounds” (ImmuneSensor Therapeutics, Inc., priority 2020, dated 2024) come the findings set out here.

The structures appear in SMILES notation. Bounds are passed on as bounds.

T1 sequence (Q8N884 147-522): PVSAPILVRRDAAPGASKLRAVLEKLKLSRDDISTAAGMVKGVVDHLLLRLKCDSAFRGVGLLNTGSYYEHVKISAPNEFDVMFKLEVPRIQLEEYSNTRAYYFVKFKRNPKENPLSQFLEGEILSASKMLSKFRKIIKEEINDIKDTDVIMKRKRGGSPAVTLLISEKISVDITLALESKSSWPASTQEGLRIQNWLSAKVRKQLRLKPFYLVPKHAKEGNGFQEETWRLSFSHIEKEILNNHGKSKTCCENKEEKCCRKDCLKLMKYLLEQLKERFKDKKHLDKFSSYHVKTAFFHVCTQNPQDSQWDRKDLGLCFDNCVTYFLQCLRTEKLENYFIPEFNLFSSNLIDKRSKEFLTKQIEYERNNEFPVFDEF

The first experiment has as its target T1, recombinant human cGAS (aa147-522) (Homo sapiens, UniProt Q8N884).
T1 construct: recombinant human cGAS (aa147-522); His6-SUMO (cleaved yes); made in house; host or cells: E. coli BL21/pLys
Briefly: In vitro inhibition assay of cGAS activity (ATP consumption, KinaseGlo Max). Format: biochemical. The note with it: Table 2, read-out: cGAS Inhibition Results IC50. As for the experimental part:
Expression and Purification of Recombinant cGAS Protein: cDNA encoding full-length or amino acids […] of human cGAS was inserted into a modified pET28a vector containing an in-frame His6-SUMO tag. The E. coli strain BL21/pLys harboring the plasmid was induced with 0.5 mM IPTG at 18° C. overnight. His6-SUMO tag was removed by a SUMO protease digestion following purification of the His6-SUMO-cGAS as described previously (Sun et al, 2013, Science 339, 786).
In vitro inhibition assay of cGAS activity: A 60 μL mixture containing 20 mM Tris-Cl, pH 7.5, 5 mM MgCl2, 0.2 mg/mL BSA, 0.01 mg/mL Herring testis DNA, 6.6 μM ATP, 0.1 mM GTP, 1.5 μg/mL of recombinant human cGAS (aa147-522) and serial dilutions of a test compound in DMSO was added to a 96-well plate and incubated at 37° C. for 20 minutes. At the end of reaction, 40 μL of KinaseGlo Max (Promega) was added and chemiluminescence was measured with a luminometer. Inhibitory effect of a compound is evaluated by plotting percentage of ATP consumption against logarithm of compound concentrations. IC50 value was calculated using GraphPad Prism 8 (GraphPad Software, Inc.).
The letter codes for cGAS IC50 include: A (<2 μM); B (2-30 μM); C (>30 μM).
On the technique in general: In Kinase-Glo more light means more ATP remaining.
As a reminder, the IC50 is the point on the concentration scale where inhibition reaches its midpoint. `CCN1CCN(c2cc(-n3ccnc3)c3ccc(Cl)c(Cl)c3n2)CC1C(=O)O` (centres unmarked) [I-80]: the half-inhibitory concentration (IC50) is less than 2000 nM.
On the same count and under the same terms, then `Clc1cc2nc(-c3ccccc3)cc(-n3ccnc3)c2cc1Cl` [I-50], with less than 2000 nM.
Still for that read-out and setting: then `CN(CCNS(=O)(=O)c1cncn1C)c1cc(-n2ccnc2)c2ccc(Cl)cc2n1` [I-232], with 2000 to 30000 nM; and `Clc1ccc2c(-c3cncnc3)cc(-c3ccccc3)nc2c1` [I-71], with greater than 30000 nM.
Same read-out and setting: for `O=C(O)C1CN(c2cc(-n3ccnc3)c3ccc(Cl)c(Cl)c3n2)CCN1` (centres unmarked) [I-79, 4-(7,8-Dichloro-4-(1H-imidazol-1-yl)quinolin-2-yl)piperazine-2-carboxylic acid] the value was less than 2000 nM; for `O=S(=O)(O)CCNc1cc(-n2ccnc2)c2ccc(Cl)c(Cl)c2n1` [I-158], less than 2000 nM.
For the compound `CC(C)[C@H](CC(=O)O)Nc1cc(-n2ccnc2)c2ccc(Cl)c(Cl)c2n1` [I-188], the half-maximal inhibitory concentration (IC50) fell in the range of 2000 to 30000 nM.
Turning to `O=S(=O)(NC1CCCN(c2cc(-n3ccnc3)c3ccc(Cl)cc3n2)C1)c1ncc[nH]1` (centres unmarked) [I-101], the IC50 was less than 2000 nM.
On the same count and under the same terms, for `C[C@@H](Nc1cc(-c2cn[nH]c2)c2ccc(Cl)c(Cl)c2n1)C(=O)OC(C)(C)C` [I-402] the value was 2000 to 30000 nM; for `COc1ncc(-c2cc(-n3ccnc3)c3ccc(Cl)cc3n2)cc1C(=O)O` [I-33, 5-(7-chloro-4-(1H-imidazol-1-yl)quinolin-2-yl)-2-methoxynicotinic acid], 2000 to 30000 nM.
Same read-out and setting: then `O=C(O)CNC(=O)[C@@H]1CCCN1c1cc(-n2ccnc2)c2ccc(Cl)c(Cl)c2n1` [I-323], with less than 2000 nM; and `O=C(O)CCNC(=O)[C@@H]1CN(c2cc(-c3cn[nH]c3)c3ccc(Cl)c(Cl)c3n2)CCO1` [I-342], with less than 2000 nM.
The same measure, in the same setting: then `CC(C)(C)c1ccc2c(-c3cn[nH]c3)cc(NCCS(N)(=O)=O)nc2c1` [I-268], with greater than 30000 nM.
For `CCOc1ccc(-c2cc(-n3ccnc3)c3ccc(Cl)cc3n2)cc1C(=O)O` [I-19, 5-(7-chloro-4-(1H-imidazol-1-yl)quinolin-2-yl)-2-ethoxybenzoic acid], the 50% inhibitory concentration (IC50) is less than 2000 nM.
Still for that read-out and setting: then `CN(CCNS(N)(=O)=O)c1cc(-n2ccnc2)c2ccc(Cl)c(Cl)c2n1` [I-223, N-(2-((7,8-dichloro-4-(1H-imidazol-1-yl)quinolin-2-yl)(methyl)amino)ethyl)aminosulfonamide], with less than 2000 nM.
Same read-out and setting: then `O=C(CO)Nc1cc(C(=O)O)cc(-c2cc(-n3ccnc3)c3ccc(Cl)cc3n2)c1` [I-23, 3-(7-chloro-4-(1H-imidazol-1-yl)quinolin-2-yl)-5-(2-hydroxyacetamido)benzoic acid], with less than 2000 nM; and `Nc1ccc(-c2cc(-n3ccnc3)c3ccc(Cl)cc3n2)cc1C(=O)O` [I-20], with less than 2000 nM; and `COC(=O)[C@@H]1C[C@H](O)CN1c1cc(-c2cn[nH]c2)c2ccc(Cl)c(Cl)c2n1` [I-432], with 2000 to 30000 nM.
Still for that read-out and setting: then `Clc1ccc2c(-n3ccnc3)cc(OCCCN3CCOCC3)nc2c1` [I-284], with greater than 30000 nM; and `Cc1cc(N2CCCC(S(N)(=O)=O)C2)c2ccc(Cl)c(Cl)c2n1` (centres unmarked) [I-317], with greater than 30000 nM; and `NC(=O)Nc1cccc(-c2cc(-n3ccnc3)c3ccc(Cl)cc3n2)c1` [I-11, 1-(3-(7-chloro-4-(1H-imidazol-1-yl)quinolin-2-yl)phenyl)urea], with 2000 to 30000 nM.
Consider `Cc1cc(NC2CCCCC2C(=O)O)c2ccc(Cl)c(Cl)c2n1` (centres unmarked) [I-316], for which the IC50 was greater than 30000 nM.
Same read-out and setting: then `CN(CCO)c1cc(-c2cn[nH]c2)c2ccc(Cl)c(Cl)c2n1` [I-240], with less than 2000 nM.
Consider `COC(CN(C)c1cc(-n2ccnc2)c2ccc(Cl)c(Cl)c2n1)OC` [I-364], for which the IC50 lay in the range of 2000 to 30000 nM.
Still for that read-out and setting: then `O=C(O)c1ccc(-c2cc(-n3ccnc3)c3ccc(Cl)cc3n2)cc1` [I-4], with 2000 to 30000 nM; and `O=P(O)(O)Cc1cc(-n2ccnc2)c2ccc(Cl)c(Cl)c2n1` [I-251, ((7,8-dichloro-4-(1H-imidazol-1-yl)quinolin-2-yl)methyl)phosphonic acid], with greater than 30000 nM; and `O=C(O)c1cc(-c2cc(-n3ccnc3)c3ccc(Cl)cc3n2)ccc1F` [I-17], with 2000 to 30000 nM.
The same measure, in the same setting: then `O=C(O)[C@H]1CN(c2cc(-c3cn[nH]c3)c3ccc(Cl)c(Cl)c3n2)CCO1` [I-328], with less than 2000 nM.
Still for that read-out and setting: then `Cc1cccc2nc(NCCS(N)(=O)=O)cc(-c3cn[nH]c3)c12` [I-267], with greater than 30000 nM; and `O=C(O)c1cccc(-c2cc(-c3ccn[nH]3)c3ccc(Cl)cc3n2)c1` [I-74, 3-(7-Chloro-4-(1H-pyrazol-5-yl)quinolin-2-yl)benzoic acid], with greater than 30000 nM; and `CS(=O)(=O)C1CCCN(c2cc(-n3ccnc3)c3ccc(Cl)cc3n2)C1` (centres unmarked) [I-117], with 2000 to 30000 nM.
Take `O=C(O)[C@H]1CCCN1C(=O)C[C@@H]1CCCN1c1cc(-n2ccnc2)c2ccc(Cl)c(Cl)c2n1` [I-386]: the half-inhibitory concentration (IC50) is less than 2000 nM.
On the same count and under the same terms, for `OCCN(CCN1CCOCC1)c1cc(-c2cn[nH]c2)c2ccc(Cl)c(Cl)c2n1` [I-218] the value was less than 2000 nM; for `Cc1cc(-c2ccn[nH]2)c2ccc(Cl)c(Cl)c2n1` [I-407], greater than 30000 nM.
On the same count and under the same terms, for `Clc1ccc2c(-n3ccnc3)cc(NCc3ccncc3)nc2c1` [I-353, 7-chloro-4-(1H-imidazol-1-yl)-N-(pyridin-4-ylmethyl)quinolin-2-amine] the value was greater than 30000 nM; for `NS(=O)(=O)CCNc1cc(NCC(=O)O)nc2c(Cl)c(Cl)ccc12` [I-319, (7,8-dichloro-4-((2-sulfamoylethyl)amino)quinolin-2-yl)glycine], greater than 30000 nM; for `NS(=O)(=O)CCNc1cc(Cl)c2ccc(Cl)c(Cl)c2n1` [I-295], greater than 30000 nM.
Same read-out and setting: then `Oc1c(Br)ccc2c(-n3ccnc3)cc(-c3ccccc3)nc12` [I-53, 7-bromo-4-(1H-imidazol-1-yl)-2-phenylquinolin-8-ol], with 2000 to 30000 nM.
Consider `C[C@H](Nc1cc(-c2cn[nH]c2)nc2c(Cl)c(Cl)ccc12)C(=O)O` [I-285], for which the IC50 was less than 2000 nM.
The same measure, in the same setting: for `CN(CCC(=O)N1CCCC(O)C1)c1cc(-c2cn[nH]c2)c2ccc(Cl)c(Cl)c2n1` (centres unmarked) [I-198] the value was less than 2000 nM.
The same measure, in the same setting: for `O=C(O)c1cc(O)cc(-c2cc(-n3ccnc3)c3ccc(Cl)cc3n2)c1` [I-26, 3-(7-chloro-4-(1H-imidazol-1-yl)quinolin-2-yl)-5-hydroxybenzoic acid] the value was less than 2000 nM; for `O=C(O)Cc1ccccc1-c1cc(-n2ccnc2)c2ccc(Cl)cc2n1` [I-14], greater than 30000 nM; for `CN(CCC(=O)NCC(=O)O)c1cc(-c2cn[nH]c2)c2ccc(Cl)c(Cl)c2n1` [I-196], less than 2000 nM.

Still in this experiment, the particulars now being: Table 3, read-out: cGAS Inhibition Results IC50.
As for `O=C(O)c1ccc(S(=O)(=O)N[C@@H]2C[C@@H](C(=O)O)N(c3cc(-n4ccnc4)c4ccc(Cl)c(Cl)c4n3)C2)cc1` [I-511], the IC50 is less than 2000 nM.
On the same count and under the same terms, for `CN(CCCOc1ccc(Cl)cc1C(=O)O)c1cc(-n2ccnc2)c2ccc(Cl)c(Cl)c2n1` [I-847] the value was 2000 to 30000 nM; for `O=C(O)C1CN(C(=O)[C@@H]2CCCN2c2cc(-n3ccnc3)c3ccc(Cl)c(Cl)c3n2)CCO1` (some centres unmarked) [I-549], less than 2000 nM; for `COCCS(=O)(=O)NCCN(C)c1cc(-n2ccnc2)c2ccc(Cl)c(Cl)c2n1` [I-610], less than 2000 nM.
Take `CC(C)N(CCCOc1cccc(F)c1C(=O)O)c1cc(-n2ccnc2)c2ccc(Cl)c(Cl)c2n1` [I-850]: the half-maximal inhibitory concentration (IC50) fell in the range of 2000 to 30000 nM.
Still for that read-out and setting: for `O=C(O)[C@@H]1CC[C@H](c2ccccc2)N1c1cc(-n2ccnc2)c2ccc(Cl)c(Cl)c2n1` [I-487] the value was less than 2000 nM.
The same measure, in the same setting: for `COC(=O)[C@@H]1Cc2ccccc2N1c1cc(-n2ccnc2)c2ccc(Cl)c(Cl)c2n1` [I-581] the value was 2000 to 30000 nM.
In the case of `NC(=O)[C@@H]1[C@@H](O)CCN1c1cc(-n2ccnc2)c2ccc(Cl)c(Cl)c2n1` [I-557], the IC50 was less than 2000 nM.
Take `COC(=O)c1cccc(S(=O)(=O)NCCN(C)c2cc(-n3ccnc3)c3ccc(Cl)c(Cl)c3n2)c1` [I-609]: the concentration for half-maximal inhibition (IC50) was greater than 30000 nM.
Still for that read-out and setting: then `O=C(O)CCOC[C@@H]1CCCN1c1cc(-c2ccoc2)c2ccc(Cl)c(Cl)c2n1` [I-824], with greater than 30000 nM; and `O=C(O)CO[C@H]1CCN(c2cc(-n3ccnc3)c3ccc(Cl)c(Cl)c3n2)C1` [I-770], with less than 2000 nM; and `CC(C)N(CCCOc1ccc(Cl)cc1C(=O)O)c1cc(-n2ccnc2)c2ccc(Cl)c(Cl)c2n1` [I-848, 5-chloro-2-(3-((7,8-dichloro-4-(1H-imidazol-1-yl)quinolin-2-yl)(isopropyl)amino)propoxy) benzoic acid], with 2000 to 30000 nM.
Take `COC(=O)CCN(CCC(=O)OC)C[C@@H]1CCCN1c1cc(-n2ccnc2)c2ccc(Cl)c(Cl)c2n1` [I-757, dimethyl 3,3′-(((1-(7,8-dichloro-4-(1H-imidazol-1-yl)quinolin-2-yl)pyrrolidin-2-yl)methyl)azanediyl)(S)-dipropionate]: the 50% inhibitory concentration (IC50) lay within 2000 to 30000 nM.
Still for that read-out and setting: then `COC(=O)CCO[C@@H]1CCN(c2cc(-n3ccnc3)c3ccc(Cl)c(Cl)c3n2)C1` [I-769], with 2000 to 30000 nM; and `O=C(O)C1CN(C(=O)C[C@@H]2CCCN2c2cc(-n3ccnc3)c3ccc(Cl)c(Cl)c3n2)CCO1` (some centres unmarked) [I-538], with less than 2000 nM; and `C[C@@H](NC(=O)CCN(C)c1cc(-n2ccnc2)c2ccc(Cl)c(Cl)c2n1)C(=O)O` [I-563], with less than 2000 nM.
